Source: ChEMBL document CHEMBL3856217, “A series of pyrido[2,3-b]pyrazin-3(4H)-one derivatives as aldose reductase inhibitors with antioxidant activity” (Eur J Med Chem, 2016)

Columns and labels:
[1] = Inhibition of rat lens ALR2 using D,L-glyceraldehyde as substrate preincubated for 10 mins followed by substrate addition measured for 5 mins
[2] = Antioxidant activity assessed as DPPH free radical scavenging activity at 100 uM after 30 mins by UV-spectrophotometric method relative to control; type: functional
[3] = Antioxidant activity assessed as DPPH free radical scavenging activity at 50 uM after 30 mins by UV-spectrophotometric method relative to control; type: functional
[4] = Antioxidant activity assessed as DPPH free radical scavenging activity at 10 uM after 30 mins by UV-spectrophotometric method relative to control; type: functional

SMILES	IC50 [1] [nM]	Activity [2] [%]	Activity [3] [%]	Activity [4] [%]
COc1cc(CCc2nc3cccnc3n(CC(=O)O)c2=O)ccc1O	689	40.1	25.8	
COc1c(O)cc(-c2nc3cccnc3n(CC(=O)O)c2=O)cc1O	319	45.6		
O=C(O)Cn1c(=O)c(-c2ccccc2)nc2cccnc21	9940			
COc1cc(O)cc(-c2nc3cccnc3n(CC(=O)O)c2=O)c1	5210			
O=C(O)Cn1c(=O)c(-c2ccc(O)cc2)nc2cccnc21	1030	6.5		
O=C(O)Cn1c(=O)c(/C=C/c2ccccc2)nc2cccnc21	895	78.9	64.1	35.5
COc1cc(/C=C/c2nc3cccnc3n(CC(=O)O)c2=O)ccc1O	307	85.5	75.6	48.6
COc1ccc(-c2nc3cccnc3n(CC(=O)O)c2=O)cc1O	2210	32.1		
COc1ccc(/C=C/c2nc3cccnc3n(CC(=O)O)c2=O)cc1	1520	52.8	39.1	
Cc1c(C)c2c(c(C)c1O)CCC(C)(C(=O)O)O2 (configuration not stated)		96.2	89.6	78.2
COc1cc(-c2nc3cccnc3n(CC(=O)O)c2=O)cc(O)c1OC	578	20.5		
O=C(O)Cn1c(=O)c(-c2ccc(O)c(O)c2)nc2cccnc21	831	50.5		
COc1cc(/C=C/c2nc3cc(Br)cnc3n(CC(=O)O)c2=O)ccc1O	389	90.1	75.4	59.6
O=C(O)Cn1c(=O)c(CCc2ccc(O)cc2)nc2cccnc21	918	35.2		

Second part, led by results:

IC50 [1] [nM]	SMILES	Activity [2] [%]	Activity [3] [%]	Activity [4] [%]
179	O=C(O)Cn1c(=O)c(-c2cc(O)c(O)c(O)c2)nc2cccnc21	70.7	62.4	34.6
9	O=C(O)Cn1c(=O)c(-c2ccc(O)cc2O)nc2cc(Cl)cnc21	41.5		
87	COc1cc(/C=C/c2nc3cc(Cl)cnc3n(CC(=O)O)c2=O)ccc1O	94.9	81.8	62.3
68	O=C(O)Cn1c(=O)c(-c2c(O)cc(O)cc2O)nc2cccnc21	83.5	70.9	40.2
35	O=C(O)Cn1c(=O)c(/C=C/c2ccc(O)cc2)nc2cccnc21	57.6	44.5	
108	O=C(O)Cn1c(=O)c(/C=C/c2ccc(O)c(O)c2)nc2cc(Br)cnc21	95.8	82.4	70.8
29	O=C(O)Cn1c(=O)c(/C=C/c2ccc(O)cc2)nc2cc(Br)cnc21	61.2	43.8	
126	O=C(O)Cn1c(=O)c(/C=C/c2ccc(F)cc2)nc2cccnc21	42.7		
165	O=C(O)Cn1c(=O)c(/C=C/c2ccc(O)c(O)c2)nc2cccnc21	89.1	78.4	55.1
185	O=C(O)Cn1c(=O)c(-c2ccc(O)cc2O)nc2cccnc21	37.7		
36	O=C(O)Cn1c(=O)c(/C=C/c2ccc(O)c(O)c2)nc2cc(Cl)cnc21	97.1	87.4	74.7
296	O=C(O)Cn1c(=O)c(-c2cc(O)cc(O)c2)nc2cccnc21	30.3		
18	O=C(O)Cn1c(=O)c(-c2c(O)cc(O)cc2O)nc2cc(Cl)cnc21	85.2	69.8	41.3
13	O=C(O)Cn1c(=O)c(/C=C/c2ccc(O)cc2)nc2cc(Cl)cnc21	66.2	47.5	
24	O=C(O)Cn1c(=O)c(-c2ccc(O)cc2O)nc2cc(Br)cnc21	43.5		
